Assay results reported in patent US20170183306A1, “CYCLIC COMPOUNDS HAVING A 1,3 DIAMINO-FUNCTIONALITY FOR USE IN THE TREATMENT OF HIV INFECTION” (Universite Paris Descartes, priority 2014, published 2017).
Structures can show the parent of a compound that is named as a salt.

Columns and labels:
Type in all cases: cell-based
[1] = system: wild type NL4-3 virus (HIV-1) in HeLa-p4 cells; experiment: HeLa-p4 single-cycle HIV-1 infectivity, beta-galactosidase CPRG test; conditions: Human immunodeficiency virus 1, NL43, HeLaP4, 48 hours after infection, control = NL4-3 virus alone; for activity at 50 µM: read-out: Hela-p4 CPRG 50 μM; for activity at 100 µM: read-out: Hela-p4 CPRG 100 μM
Procedure: (§1) HeLa-p4 cells are HeLa CD4 LTR-LacZ wherein LacZ expression is induced by the trans-activating protein Tat of HIV, making possible the precise quantification of HIV-1 infectivity from a single replication cycle. HeLa-CD4 cells growing exponentially at a density of 1×10^4/mL were placed in 96-well plates and infected the following day with 1 ng of HIV p24 antigen in the presence of different concentrations of compounds. The titles for a single cycle of the viruses were determined 48 hours after infection by quantifying the beta-galactosidase activity in lysates P4 by colorimetric test (CPRG, Promega) based on the cleavage of chlorophenol red-beta-D-galactopyranoside (CPRG) by beta-galactosidase. A cell viability assay measuring the absorbance at […] using the yellow tetrazolium reagent MTS [[…]] (Promega) was carried out.
(§2) For the helap4 cells experiments, the efficacy of the compounds is determined in comparison with control cells containing wild type NL4-3 virus alone (i.e. without any added compound) and is expressed as percentage of control. Then, the viral replication was increased for several compounds at the 50 and 100 μM concentrations with an absence of cytotoxic effects at the same concentrations (MTS test) (table 1).

HeLa-p4 cells = experiment: Cell viability assay (MTS) on HeLa-p4 cells; conditions: cell viability
Procedure: as §1, §2

J-Lat cells = experiment: J-Lat cells, percentage of GFP-positive cells by cytometry; conditions: 24 h, compound alone
Procedure: The J-Lat were grown in RPMI 1640 medium (Gibco-BRL) supplemented with 10% fetal bovine serum, 50 U/ml of penicillin, […] of streptomycin at 37 uC in a humidified 95% air/5% CO2 atmosphere. The cells were plated at 5.105 cells in a 96 well-plate. TNF ? was purchased from Immunosource. SAHA (suberoylanilide hydroxamic acid), prostratin (12-deoxyphorbol-13-acetate) and vorinostat were obtained from Sigma-Aldrich. The J-Lat cells were treated for 24 h with the different compounds alone. The cells were washed twice in PBS, re-suspended in PBS containing 4% paraformaldehyde and fixed for 30 min. Cells were next washed and re-suspended in PBS. The percentage of GFP-positive cells was measured with a LSRFortessa cytometer (Becton-Dickinson) using FACSDiva Version 6.1.3 according to the manufacturer's instructions.
The results for the J-Lat cells experiments are expressed as a percentage of the living fluorescent cells. In this model, some slight increase of viral production measured by fluorescence are quantified (table 1).

| Compound | activity at 50 µM [1] | activity at 100 µM [1] | Hela-p4 MTS 50 μM (HeLa-p4 cells) | Hela-p4 MTS 100 μM (HeLa-p4 cells) | J-lat 50 μM (J-Lat cells) | J-lat 100 μM (J-Lat cells) | activity at 200 µM [1] | Hela-p4 MTS 200 μM (HeLa-p4 cells) |
| --- | --- | --- | --- | --- | --- | --- | --- | --- |
| N[C@@H]1C[C@H](N)CN(c2ccc3c(c2)OCO3)C1 [ECO01-042-C] | 146% | 104% | 85 | 60 | 0.2 percentage of the living fluorescent cells | 0.4 percentage of the living fluorescent cells | – | – |
| COc1cccc(N2C[C@H](N)C[C@H](N)C2)c1 [ECO01-055-C, 1-(3-methoxyphenyl)piperidine-3,5-diamine] | 111% | 153% | 94 | 94 | 0.4 percentage of the living fluorescent cells | 0.1 percentage of the living fluorescent cells | – | – |
| COc1ccc(N2C[C@H](N)C[C@H](N)C2)cc1 [ECO01-056-C, 1-(4-methoxyphenyl)piperidine-3,5-diamine] | 94% | 122% | 68 | 81 | 0.1 percentage of the living fluorescent cells | 0.2 percentage of the living fluorescent cells | – | – |
| N[C@@H]1C[C@H](N)CN(c2cccc(C(=O)Nc3ccccc3)c2)C1 [ECO02-003-C, 3-(3,5-diaminopiperidin-1-yl)-N-phenylbenzamide] | 140% | 118% | 105 | 60 | 0.4 percentage of the living fluorescent cells | 0.5 percentage of the living fluorescent cells | – | – |
| CCOc1ccc(CCN2C[C@H](N)C[C@H](N)C2)cc1 [ECO02-005-C, 1-(4-ethoxyphenethyl)piperidine-3,5-diamine] | 127% | 195% | 106 | 97 | 0.5 percentage of the living fluorescent cells | 0.1 percentage of the living fluorescent cells | – | – |
| N[C@@H]1C[C@H](N)CN(c2ccc(C(=O)N3CCCCCC3)cc2)C1 [ECO02-007-C, azepan-1-yl(4-(3,5-diaminopiperidin-1-yl)phenyl)methanone] | 87% | 98% | 97 | 98 | 0.6 percentage of the living fluorescent cells | – | – | – |
| COc1ccc(CCN2C[C@H](N)C[C@H](N)C2)cc1 [ECO02-025-C, 1-(4-methoxyphenethyl)piperidine-3,5-diamine] | 90% | 123% | 112 | 82 | 0.3 percentage of the living fluorescent cells | 0.3 percentage of the living fluorescent cells | – | – |
| N[C@@H]1C[C@H](N)CN(CCCCc2ccccc2)C1 [ECO02-026-C, 1-(4-phenylbutyl)piperidine-3,5-diamine] | 30% | 31% | 26 | 26 | 65.0 percentage of the living fluorescent cells | – | – | – |
| N[C@@H]1C[C@H](N)CN(CCc2ccccc2)C1 [ECO02-027-C, 1-phenethylpiperidine-3,5-diamine] | 75% | 52% | 100 | 45 | 8.7 percentage of the living fluorescent cells | 2.3 percentage of the living fluorescent cells | – | – |
| N[C@@H]1C[C@H](N)CN(CCc2ccc(O)cc2)C1 [ECO02-028-C, 4-(2-(3,5-diaminopiperidin-1-yl)ethyl)phenol] | 107% | 89% | 100 | 83 | 0.3 percentage of the living fluorescent cells | 0.2 percentage of the living fluorescent cells | – | – |
| COc1ccc(-c2ccc(N3C[C@H](N)C[C@H](N)C3)cc2)cc1 [ECO02-029-C, 1-(4′-methoxy-[1,1′-biphenyl]-4-yl)piperidine-3,5-diamine4-(2-((3S,5R)-3,5-diaminopiperidin-1-yl)ethyl)phenol] | 29% | 30% | 25 | 25 | 2.4 percentage of the living fluorescent cells | – | – | – |
| CC(C)(C)OC(=O)N[C@@H]1C[C@H](NC(=O)OC(C)(C)C)CN(Cc2ccccc2)C1 [ECO02-056-C, di-tert-butyl (1-benzylpiperidine-3,5-diyl)dicarbamate] | 100% | 79% | 67 | 38 | 1.6 percentage of the living fluorescent cells | – | – | – |
| CC(C)(C)OC(=O)N[C@@H]1C[C@H](NC(=O)OC(C)(C)C)CN(Cc2ccco2)C1 [ECO02-058-C, di-tert-butyl (1-(furan-2-ylmethyl)piperidine-3,5-diyl)dicarbamate] | 110% | 159% | 105 | 88 | 1.4 percentage of the living fluorescent cells | – | 194% | 87 |
| CC(C)(C)OC(=O)N[C@@H]1C[C@H](NC(=O)OC(C)(C)C)CN(Cc2ccc(N3CCCC3)cc2)C1 [ECO02-059-C, di-tert-butyl (1-(4-(pyrrolidin-1-yl)benzyl)piperidine-3,5-diyl)dicarbamate] | 198% | 177% | 95 | 67 | 0.5 percentage of the living fluorescent cells | – | – | – |
| COc1ccc2c(CN3C[C@H](NC(=O)OC(C)(C)C)C[C@H](NC(=O)OC(C)(C)C)C3)cn(C)c2c1 [ECO02-060-C, di-tert-butyl (1-((6-methoxy-1-methyl-1H-indol-3-yl)methyl)piperidine-3,5-diyl)dicarbamate] | 178% | 221% | 69 | 54 | 0.6 percentage of the living fluorescent cells | – | 217% | 43 |
| CN(C)c1ccc(CN2C[C@H](NC(=O)OC(C)(C)C)C[C@H](NC(=O)OC(C)(C)C)C2)cc1 [ECO02-062-C] | 239% | 269% | 91 | 84 | 0.7 percentage of the living fluorescent cells | – | 401% | 73 |
| N[C@@H]1C[C@H](N)CN(Cc2ccccc2)C1 [ECO02-063-C, 1-benzylpiperidine-3,5-diamine trihydrochloride] | 85% | 107% | 108 | 112 | 2.9 percentage of the living fluorescent cells | – | 193% | 81 |
| COc1cc(CN2C[C@H](N)C[C@H](N)C2)cc(OC)c1 [ECO02-064-C, 1-(3,5-dimethoxybenzyl)piperidine-3,5-diamine] | 109% | 133% | 115 | 107 | 2.4 percentage of the living fluorescent cells | – | – | – |
| N[C@@H]1C[C@H](N)CN(Cc2ccco2)C1 [ECO02-065-C] | 108% | 125% | 91 | 88 | 0.5 percentage of the living fluorescent cells | – | 205% | 68 |
| N[C@@H]1C[C@H](N)CN(Cc2cccc3cnccc23)C1 [ECO02-068-C, 1-(isoquinolin-5-ylmethyl)piperidine-3,5-diamine trihydrochloride] | 105% | 137% | 85 | 83 | 0.4 percentage of the living fluorescent cells | – | – | – |
